Tested on: Vero-E6 cells
Experiment: cells
Format: cell-based
Details: for activation at 10 µM: Chlorocebus sabaeus, Vero C1008, 24 h, read-out: PL_Result

| SMILES | activation at 10 µM [%] | PLD propensity |
| --- | --- | --- |
| O=C(O)[C@H](Cc1c[nH]c2ccccc12)N1C(=O)c2ccccc2C1=O [SPE_K89391146] | -6.19 |  |
| C[C@H](O)[C@H](O)[C@H]1CNc2[nH]c(N)nc(=O)c2N1 [SPE_K36859431] | -1.35 |  |
| O=c1c(-c2ccc(O)cc2)coc2cc(O)cc(O)c12 [SPE_K43797669] | 24.8 |  |
| Nc1c(S(=O)(=O)O)cc(Nc2cccc3ccccc23)c2c1C(=O)c1ccccc1C2=O [SPE_K71266197] | -13.9 |  |
| O=C(/C=C/C=C/c1ccc2c(c1)OCO2)N1CCCCC1 [SPE_K59522102] | 2.7 |  |
| CCc1ccc2c(-c3cccc(Cl)c3)nc(=O)n(CC)c2n1 [SPE_K12932420] | 0.000931 |  |
| CC(C)COC(=O)c1ccc(N)cc1 [SPE_K96714749] | 1.09 |  |
| CC(C)C(N)=O [SPE_K54057105] | -7.86 |  |
| CC(C)c1cc(C(=O)N2Cc3ccc(CN4CCN(C)CC4)cc3C2)c(O)cc1O [SPE_K58435339] | 0.714 |  |
| Clc1ccc(C23CNCC2C3)cc1Cl (stereo not drawn) [SPE_A68942014] | -4.9 |  |
| CCn1cnc2c(Nc3cccc(Cl)c3)nc(N[C@@H]3CCCC[C@@H]3N)nc21 [SPE_K56239177] | 0.0914 |  |
| CCC1(c2ncc[nH]2)Cc2ccccc2O1 (stereo not drawn) [SPE_A38747044] | 2.93 |  |
| CC(=O)O[C@]1(C(C)=O)CC[C@H]2[C@@H]3CCC4=CC(=O)CCC4=C3[C@@H](c3ccc(N(C)C)cc3)C[C@@]21C [SPE_K76197012] | -4.74 |  |
| CCOc1c2c(c(OCC)c3ccccc13)C(=O)N(c1ccc(CC(=O)NS(=O)(=O)c3ccccc3)cc1)C2 [SPE_K50005760] | -9.22 |  |
| CN1CCN(CCc2ccc(Cl)c(Cl)c2)CC1 [SPE_K29668683] | 11.7 |  |
| c1ccc(C(O[C@@H]2CCCN(CCc3ccc4c(c3)OCO4)C2)c2ccccc2)cc1 [SPE_K80451230] | 13 |  |
| O=C(NCCN1CCC2(CC1)C(=O)NCN2c1cccc(F)c1)c1ccc2ccccc2c1 [SPE_K93317811] | 113 |  |
| O=C(Nc1ccc(N2CCC(C(=O)N3CCOCC3)CC2)cc1)c1cnc(Oc2ccccc2)nc1 [SPE_K57708067] | -4.61 |  |
| NC1(Cc2ccc(Cl)cc2)CCN(c2ncnc3[nH]ccc23)CC1 [SPE_K76406695] | -4.38 |  |
| NS(=O)(=O)c1cc(C(=O)O)cc(N2CCCC2)c1Oc1ccccc1 [SPE_K87990216] | 0.629 |  |
| CCCc1c(-c2ccc(O)cc2)nn(-c2ccc(O)cc2)c1-c1ccc(O)cc1 [SPE_K00312224] | 1.41 |  |
| O=C(O)COCCN1CCN(C(c2ccccc2)c2ccc(Cl)cc2)CC1 (stereo not drawn) [SPE_A42571354] | -3.1 |  |
| COc1ccc(Cl)c(Nc2nc3ccccc3nc2NS(=O)(=O)c2cccc(NC(=O)C(C)(C)N)c2)c1 [SPE_K49456274] | -4.27 |  |
| O=C1CCCN1CC#CCN1CCCC1 [SPE_K21936341] | -3.09 |  |
| CC(C)(Sc1cc(C(C)(C)C)c(O)c(C(C)(C)C)c1)Sc1cc(C(C)(C)C)c(O)c(C(C)(C)C)c1 [SPE_K72029282] | -0.8 |  |
| O=c1[nH]c(=O)n([C@H]2C[C@H](O)[C@@H](CO)O2)cc1/C=C/Br [SPE_A63675168] | -6.33 |  |

| SMILES | activation at 10 µM [%] | PLD propensity |
| --- | --- | --- |
| C[C@]12CC[C@H](O)C[C@H]1CC[C@@H]1[C@@H]2CC[C@]2(C)[C@@](O)(c3ccoc3)CC[C@]12O [SPE_K11672787] | -0.921 |  |
| CCC[C@H](N[C@@H](C)C(=O)N1[C@H](C(=O)O)C[C@@H]2CCCC[C@@H]21)C(=O)OCC [SPE_K92731339] | 4.37 |  |
| COc1ccc(S(=O)(=O)N2CCC[C@H]2C(=O)Nc2cc(C)cc(C)c2)cc1 [SPE_K19781342] | 0.676 |  |
| O=S(=O)(NCCCCCCc1ccccc1)c1cccc2c(Cl)cccc12 [SPE_K25875056] | -10.4 |  |
| CS(=O)(=O)c1ccc(C(O)[C@H](CF)NC(=O)C(Cl)Cl)cc1 (stereo partly drawn) [SPE_A30886737] | 3.66 |  |
| CC[C@]12CCCN3CCc4c(n(c5ccccc45)C(=O)C1)[C@@H]32 [SPE_K40227168] | -8.29 |  |
| CCCCC/C=C\C/C=C\C/C=C\CCCCC(=O)O [SPE_K18059238] | 1.69 |  |
| O=C(O)[C@@H]1C[C@@H](O)CN1 [SPE_A12454076] | -8.44 |  |
| CCc1cc2c(c(CC)n1)CCC(=O)N2Cc1ccc(-c2ccccc2-c2nnn[nH]2)cc1 [SPE_K11373525] | -4.91 |  |
| CCOc1cc(N2CCC(O)CC2)ccc1Nc1ncc2c(n1)N(C)c1ccccc1C(=O)N2C [SPE_K50387473] | -6.3 |  |
| C=CC(C)(O)CCC=C(C)C (stereo not drawn) [SPE_A43082461] | -7.7 |  |
| CC(C)[C@H](CO)Nc1nc(Nc2cccc(Cl)c2)c2ncn(C(C)C)c2n1 [SPE_K50836978] | 1.32 |  |
| COC(=O)C1=CCCN(C)C1 [SPE_K88646909] | 3.55 |  |
| Cc1cccc(-c2n[nH]cc2-c2ccc3ncccc3n2)n1 [SPE_K80480517] | 0.32 |  |
| O=C(Cc1ccc(-c2ccc(OCCN3CCOCC3)cc2)cn1)NCc1ccccc1 [SPE_K29968218] | -4.21 |  |
| Cc1cc(C(N)=O)ccc1-n1c(CCC(=O)O)ccc1-c1ccc(-n2ccnc2)cc1 [SPE_K82522873] | -2.92 |  |
| Cn1ncnc1COc1nn2c(-c3cc(F)ccc3F)nnc2cc1C(C)(C)C [SPE_K46647427] | -14.8 |  |
| O=C1C=CC[C@@H]2[C@H]3CCCN4CCC[C@@H](CN12)[C@@H]34 [SPE_K66845263] | -5.47 |  |
| CC(=O)[C@@]1(O)CC[C@H]2[C@@H]3C[C@H](C)C4=CC(=O)CC[C@]4(C)[C@H]3CC[C@@]21C [SPE_K99615199] | -9.68 |  |
| NC[C@@H]1CC[C@@H](N)[C@@H](O[C@H]2[C@H](O)[C@@H](O[C@H]3O[C@H](CO)[C@@H](O)[C@H](N)[C@H]3O)[C@H](N)C[C@@H]2N)O1 [SPE_K48427910] | -9.88 |  |
| Oc1cc(O)c2c(c1)O[C@H](c1ccc(O)c(O)c1)[C@@H](O)C2 [SPE_K58736316] | -12.2 |  |
| COc1ccn2ncc(-c3nc4[nH]nc(NC(=O)c5ccc(F)cc5)c4cc3F)c2c1 [SPE_K84068331] | -16.5 |  |
| Cc1[nH]nc(C(F)(F)F)c1Cc1sc2c(c1C(=O)N1C[C@](C)(O)CO1)c(=O)n(C)c(=O)n2C(C)C [SPE_K25210703] | -5.25 |  |
| Cc1ccc(S(=O)(=O)NC(=O)NN2CCCCCC2)cc1 [SPE_K32164935] | -1.35 |  |
| CC(C)CCCC(C)[C@H]1CCC2C3CC=C4C[C@@H](O)CC[C@]4(C)C3CC[C@@]21C (stereo partly drawn) [SPE_A42883684] | -4.75 |  |
| Cc1cc(/C=C/C#N)cc(C)c1Nc1ccnc(Nc2ccc(C#N)cc2)n1 [SPE_K06240250] | -8.07 |  |

| SMILES | activation at 10 µM [%] | PLD propensity |
| --- | --- | --- |
| CC(C)(Oc1ccc(Cl)cc1)C(=O)O [SPE_K19111024] | -0.104 |  |
| CC(C)Oc1ccc(-c2cnc3c(-c4ccnc5ccccc45)cnn3c2)cc1 [SPE_K39381259] | -4.31 |  |
| COC(=O)Nc1ccc(-c2nc(N3CCOCC3)c3cnn(C4CCN(Cc5cccnc5)CC4)c3n2)cc1 [SPE_K49900195] | 1.79 |  |
| Oc1c(I)cc(Cl)c2cccnc12 [SPE_K09255212] | 3.03 |  |
| CC(COc1ccccc1Cc1ccccc1)N1CCCCC1 (stereo not drawn) [benproperine, reference compound] |  | high PLD propensity |
| NCC1CC(=O)N(Cc2ccccc2)C1 (stereo not drawn) [SPE_A51355958] | 2 |  |
| CC(C)[C@H](CO)Nc1nc(Nc2ccc(C(=O)O)c(Cl)c2)c2ncn(C(C)C)c2n1 [SPE_K41564320] | 1.13 |  |
| CCN(CCCOc1ccc2c(Nc3cc(CC(=O)Nc4cccc(F)c4)[nH]n3)ncnc2c1)CCOP(=O)(O)O [SPE_K31928526] | -11.2 |  |
| CNC(=O)[C@H]1O[C@@H](n2cnc3c(NCc4cccc(I)c4)nc(Cl)nc32)[C@H](O)[C@@H]1O [SPE_K52396582] | -2.9 |  |
| CC(C)C[C@H](NC(=O)CNC(=O)c1cc(Cl)ccc1Cl)B1OC(=O)C(CC(=O)O)(CC(=O)O)O1 [SPE_K15203492] | -7.87 |  |
| COc1ccc(-c2sc(NC(=O)C(C)(C)C)nc2C)cc1S(=O)(=O)Nc1ccc(O)cc1 [SPE_K75528696] | 21.7 |  |
| CCC[N+]12C3C[C@H](C4C(O)[C@]5(C[C@@H]41)c1ccccc1N(C)[C@@H]35)[C@H](CC)[C@H]2O (stereo partly drawn) [SPE_A53539450] | -3.5 |  |
| Cn1cc(C(=O)C(=O)N[C@H]2CN3CCC2CC3)c2ccccc21 [SPE_K20714604] | 10.1 |  |
| CC(=O)NCCNc1cc(Cl)nn2c(-c3cccc(S(=O)(=O)N(C)C)c3)c(C)nc12 [SPE_K26726854] | 0.695 |  |
| CN(C)c1ccc(C(=C2C=CC(=[N+](C)C)C=C2)c2ccc(N(C)C)cc2)cc1 [SPE_K60025295] | 5.79 |  |
| CC(=O)O[C@H]1CC[C@@]2(C)C(=CC[C@@H]3[C@@H]2CC[C@]2(C)C(c4cccnc4)=CC[C@@H]32)C1 [SPE_K24048528] | -6.34 |  |
| CN1C(=O)N(c2cc(Cl)cc(Cl)c2)C(=O)[C@]12CN(Cc1cc(C(=O)O)cs1)C[C@H]2c1ccc(C#N)cc1 [SPE_K20093108] | -2.08 |  |
| CC(=O)O[C@H]1C[C@@]2(C)[C@@H](C[C@@H](O)C3[C@]2(C)CC[C@H]2[C@H](C)[C@H](O)CC[C@]32C)/C1=C(/CCC=C(C)C)C(=O)O (stereo partly drawn) [SPE_A06935312] | -11.6 |  |
| COc1nccnc1NS(=O)(=O)c1ccc(N)cc1 [SPE_K17205817] | -0.746 |  |
| Cc1coc2c1C(=O)C(=O)c1c-2ccc2c(C)cccc12 [SPE_K34073885] | 1.44 |  |
| Nc1ncnc2c1ncn2[C@@H]1O[C@H](CO)C[C@H]1O [SPE_K65428967] | -10.4 |  |
| C1CCC2(CC1)CCNCC2 [SPE_K49545903] | -14.5 |  |
| Cc1c(C2CCN(CCc3ccccc3)CC2)noc1-c1ccc(Cl)cc1 [SPE_K13211965] | 49 |  |
| CCCCN(CCCC)C(=O)CN1C[C@H](c2ccc3c(c2)OCO3)[C@@H](C(=O)O)[C@@H]1c1ccc(OC)cc1 [SPE_K16295392] | -6.93 |  |
| CC(C)CCN1c2nc(Nc3cc(F)c(O)c(F)c3)ncc2N(C)C(=O)C1C (stereo not drawn) [SPE_A81370665] | -5.78 |  |
| CCCc1nc(C)c2c(=O)[nH]c(-c3cc(S(=O)(=O)N4CCN(CC)CC4)ccc3OCC)nn12 [SPE_K13926615] | 1 |  |

From PMC13083723 (Patterns, 2026)
